Assays:
Epac2 = biological target: T1, Epac2 (Mus musculus, UniProt Q9EQZ6); test: Cellular Epac activity: Rap•GTP levels in U2OS cells stably expressing Epac2; type: cell-based, homo sapiens; settings: for rel. RapGTP: relative to induction with forskolin and IBMX, Fig. 6C
T1 construct: pBabe-Flag-Epac2 (Epac2, mus musculus, amino acids 1–993); expressed in transfected cells; host or cells: U2OS
T1 sequence (Q9EQZ6 1-993 isoform Q9EQZ6-3): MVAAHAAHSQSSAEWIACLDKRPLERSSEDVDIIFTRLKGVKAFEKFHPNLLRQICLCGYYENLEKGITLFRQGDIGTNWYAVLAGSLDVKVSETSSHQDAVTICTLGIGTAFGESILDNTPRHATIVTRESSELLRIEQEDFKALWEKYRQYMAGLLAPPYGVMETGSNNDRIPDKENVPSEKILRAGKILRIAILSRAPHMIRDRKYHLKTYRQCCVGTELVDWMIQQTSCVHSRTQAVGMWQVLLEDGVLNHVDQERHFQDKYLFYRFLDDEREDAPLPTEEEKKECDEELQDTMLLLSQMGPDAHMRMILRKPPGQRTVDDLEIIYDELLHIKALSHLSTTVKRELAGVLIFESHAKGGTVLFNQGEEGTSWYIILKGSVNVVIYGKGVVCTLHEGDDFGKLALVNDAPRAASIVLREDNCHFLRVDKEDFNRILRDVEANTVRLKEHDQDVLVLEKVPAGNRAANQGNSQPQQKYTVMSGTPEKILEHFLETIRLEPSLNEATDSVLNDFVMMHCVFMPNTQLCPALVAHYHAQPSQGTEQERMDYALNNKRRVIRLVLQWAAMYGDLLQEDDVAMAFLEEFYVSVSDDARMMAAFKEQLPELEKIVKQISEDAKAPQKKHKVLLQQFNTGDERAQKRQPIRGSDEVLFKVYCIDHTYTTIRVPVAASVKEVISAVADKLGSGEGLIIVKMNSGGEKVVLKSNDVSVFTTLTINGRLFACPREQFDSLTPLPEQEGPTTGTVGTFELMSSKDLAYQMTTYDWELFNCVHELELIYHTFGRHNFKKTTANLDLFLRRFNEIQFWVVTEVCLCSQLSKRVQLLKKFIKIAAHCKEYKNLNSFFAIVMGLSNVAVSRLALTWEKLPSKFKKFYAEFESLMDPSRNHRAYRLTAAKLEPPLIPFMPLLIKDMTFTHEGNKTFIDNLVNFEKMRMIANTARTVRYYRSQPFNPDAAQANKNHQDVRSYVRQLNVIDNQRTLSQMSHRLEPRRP
Method: Rap•GTP levels were determined by precipitating GTP-bound Rap specifically from cell lysates and subsequent western Blotting with an α-Rap antibody (Santa Cruz Biotechnology). To generate stable cell lines, U2OS cells were transfected with pBabe-Flag-Epac1 (Epac1, homo sapiens, amino acids 1–881) or pBabe-Flag-Epac2 (Epac2, mus musculus, amino acids 1–993), selected for Epac expression and maintained under selection with 2 mg/l puromycin. The cells were cultured according to standard protocols. The activity of PKA was determined by western blotting with a monoclonal α-VASP antibody (BD Transduction Laboratories). Blots were developed by enhanced chemiluminescence (ECL) and the use of X-ray films; for quantification films were scanned. The intensities of the Rap•GTP bands and the upper band of VASP (P-VASP) were determined for each condition in ImageJ and normalized to the stimulation with forskolin and IBMX for each blot.

Epac2^Δ280,K405Q = biological target: T2, Epac2^Δ280,K405Q (Mus musculus, UniProt Q9EQZ6, K423Q); test: Epac activation assay, Epac2 K405Q mutant; type: biochemical
T2 construct: made in house
T2 sequence (Q9EQZ6 281-993 isoform Q9EQZ6-3 K405Q): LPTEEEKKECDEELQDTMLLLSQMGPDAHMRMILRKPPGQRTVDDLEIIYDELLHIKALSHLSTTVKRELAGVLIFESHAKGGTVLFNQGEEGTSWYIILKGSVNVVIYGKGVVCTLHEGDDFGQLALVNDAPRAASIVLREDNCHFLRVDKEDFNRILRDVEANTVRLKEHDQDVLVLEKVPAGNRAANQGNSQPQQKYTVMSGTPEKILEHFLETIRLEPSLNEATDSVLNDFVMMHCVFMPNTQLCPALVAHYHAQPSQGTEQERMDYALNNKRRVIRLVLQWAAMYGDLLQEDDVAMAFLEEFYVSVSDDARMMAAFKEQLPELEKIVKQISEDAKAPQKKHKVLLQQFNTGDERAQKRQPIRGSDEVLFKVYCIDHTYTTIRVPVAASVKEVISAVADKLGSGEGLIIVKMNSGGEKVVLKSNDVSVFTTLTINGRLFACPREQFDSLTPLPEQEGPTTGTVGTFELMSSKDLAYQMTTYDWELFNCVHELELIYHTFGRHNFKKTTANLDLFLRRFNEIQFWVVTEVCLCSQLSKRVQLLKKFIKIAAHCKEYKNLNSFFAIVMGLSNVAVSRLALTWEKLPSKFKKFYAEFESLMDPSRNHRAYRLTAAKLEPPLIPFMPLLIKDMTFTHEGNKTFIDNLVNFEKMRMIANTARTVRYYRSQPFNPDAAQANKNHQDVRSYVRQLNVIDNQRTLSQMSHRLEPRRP
Method: Murine Epac2 was used as all previous structural studies were performed with it.
The activity of Epac was determined by a fluorescence assay. […] The fluorescence intensity of Rap1B•mGDP is approximately twice that of free mGDP, and thus, nucleotide exchange can be observed as a decay in fluorescence upon the addition of excess unlabeled GDP.

primary human islets = test: Insulin secretion assay in primary human islets; type: cell-based; settings: 25 to 100 μM; compared with Forskolin/IBMX
Method: Islets were isolated from two human donor pancreases. Intact islets (n = 20 per well) were seeded on ultra-low attachment 96-well plate. After 3 days of culture, the pancreatic islets were washed two times with 115 mM NaCl, 5 mM KCl, 24 mM NaHCO3, 2.2 mM CaCl2, 1 mM MgCl2, 20 mM HEPES, and 0.2% human serum albumin (incubation buffer) and primed for 1.5 h at 37°C in incubation buffer supplemented with 2 mM glucose (low glucose). Subsequently, the cells were incubated in fresh incubation buffer supplemented with 2 mM glucose for 1 h to measure the basal insulin secretion levels. […] The cell supernatants were collected immediately after incubation with low and high glucose. The insulin concentrations were measured by ELISA (Insulin ELISA Kit, Mercodia). The insulin secretion was expressed as the ratio of insulin concentration at high and low glucose concentrations for each well (insulin secretion index).

Epac2^fl = biological target: T3, Epac2^fl (Mus musculus, UniProt Q9EQZ6); settings: footnote b, see also ref 11; cited from earlier work
T3 sequence (Q9EQZ6 1-993 isoform Q9EQZ6-3): T1 sequence (Q9EQZ6 1-993 isoform Q9EQZ6-3)

| Structure (SMILES) | activation of Epac2 in cells (Epac2) | rel. RapGTP (Epac2) | activation (Epac2^Δ280,K405Q) | glucose-induced insulin secretion (primary human islets) | Rel. kmax (Epac2^fl) |
| --- | --- | --- | --- | --- | --- |
| COC1C2OP(=O)(O)OCC2OC1n1c(Sc2ccc(Cl)cc2)nc2c(N)ncnc21 [D-007, 8-pCPT-2′-O-Me-cAMP, reference compound] | only minor effects | 0.3431 | efficiently activated |  |  |
| Nc1ncnc2c1nc(Sc1ccc(Cl)cc1)n2[C@@H]1O[C@@H]2COP(=O)(O)O[C@H]2[C@H]1O [L-026, 8-pCPT-cAMP] |  | 0.7828 |  |  |  |
| Nc1ncnc2c1nc(SCc1ccccc1)n2[C@@H]1O[C@@H]2CO[P@](O)(=S)O[C@H]2[C@H]1O [S-220, Sp-8-BnT-cAMPS] | efficiently activated | 1.2025 |  | potentiates glucose-induced insulin secretion with similar efficiency |  |
| Nc1ncnc2c1ncn2[C@@H]1O[C@@H]2COP(=O)(O)O[C@H]2[C@H]1O [cAMP, reference compound] |  |  |  |  | 1.0^b |

— article PMC4300089, “Structure-Guided Design of Selective Epac1 and Epac2 Agonists” (PLoS Biology, 2015)
